Measurements reported in US5659055A, “Cytoprotective fatty moiety compounds” (Virginia Commonwealth University, priority 1995, dated 1997).

Tested on: PLA2 derived from plasma, sperm, platelets, human synovial fluid and N. naja cobra venom
Experiment: In vitro inhibition of PLA2 from a variety of sources (FIG. 8)
Type: biochemical

Question: For `CCCCCCC(C/C=C\CCCCCCCC(=O)O)OC(=O)CCCCCCCCC(=O)O` (stereo not shown) [RISE-1, Ricinoleic Acid--Sebacyl Ester], which “in vitro inhibition of PLA2 from different sources” value is on record?
Answer: dose related, selective in vitro inhibition
